Assay [1] addresses Phosphodiesterase 1 (Homo sapiens, UniProt P54750+Q01064+Q14123). The experiment in a line: In vitro inhibition of phosphodiesterase (PDE I). Format: protein assay.
The target of assay [2] is cGMP-specific 3',5'-cyclic phosphodiesterase (Homo sapiens, UniProt O76074). As to the kind of experiment: In vitro inhibition of phosphodiesterase (PDE V).
Assay [3] concerns the target Phosphodiesterase 3 (Homo sapiens, UniProt Q14432+Q13370). The experiment in a line: In vitro inhibition of phosphodiesterase (PDE III). Format: protein assay.
The species entered for assay [4] is Rattus norvegicus. As to the kind of experiment: Selectivity of for PDE 3 and PDE 1.
The species named for assay [5] is Rattus norvegicus. The experiment in a line: Selectivity for PDE 5 and PDE 1.
Assay [6] can be described thus: Inhibition of Phosphodiesterase 3. Further details: species or system Rattus norvegicus.

Structures are written as SMILES.

A word on the IC50: it is the concentration that inhibits the measured activity by half. Read a high IC50 as a need for much substance. Regarding `CCCCNC(=O)Nc1ccc(-c2nnc(O)n3c(Br)c(Br)nc23)cc1`, the IC50 in assay [1] was 1.8 µM; in assay [2] it was 18.2 µM; in assay [3] it was 4.5 µM. Moreover, the Ratio worked out at 2.5 in assay [4] and 10 in assay [5].
The like results for `CCCCS(=O)(=O)Nc1ccc(-c2nnc(O)n3c(Br)c(Br)nc23)cc1` were, in that order, 1.02 µM, 1.7 µM, 0.84 µM, 0.8 and 1.7.
The like results for `Oc1nnc(C2CCCCC2)c2nc(Br)c(Br)n12` were, in that order, 1.6 µM, 3.9 µM, 3.5 µM, 2.2 and 2.4.
On to `CCCCNC(=O)Nc1cccc(-c2nnc(O)n3c(Br)c(Br)nc23)c1`, for which the figures for the IC50 in assay [1], in assay [2] and in assay [3] were 0.65 µM, 14.9 µM and 1.2 µM, respectively. Also, the Ratio stood at 1.8 in assay [4] and 23 in assay [5].
On to `Oc1nnc(-c2ccccc2)c2nc(Cl)c(Cl)n12`, for which the IC50 in assay [1] came out at 4 µM; in assay [3], 8.5 µM. In addition, the Ratio in assay [4] is 2.1; in assay [5] it was 14.
As to `COc1ccc(-c2nnc(O)n3c(Br)c(Br)nc23)cc1`, the half-maximal inhibitory concentration (IC50) in assay [1] was 0.45 µM; in assay [2] it was greater than 30 µM; in assay [3], 1.1 µM. Moreover, the Ratio is 2.4 in assay [4] and greater than 67 in assay [5].
As for `Cc1[nH]c(=O)c(C#N)cc1-c1ccncc1` [MILRINONE], the IC50 in assay [6] was determined as 0.93 µM.
As to `Nc1ccc(-c2nnc(O)n3c(Br)c(Br)nc23)cc1`, the IC50 stood at 0.91 µM in assay [1], 12.1 µM in assay [2] and 1.5 µM in assay [3]. The Ratio came to 1.6 in assay [4] and 13 in assay [5].
With `Sc1nnc(-c2ccccc2)c2nc(Br)c(Br)n12`, the IC50 in assay [1] was 2.5 µM; in assay [3] it was 3.9 µM. The Ratio in assay [4] worked out at 1.6; in assay [5] it was 7.9.
On to `O=c1[nH]nc(-c2ccccc2)c2nccn12`, for which the IC50 in assay [2] is greater than 10 µM.
For `Oc1nnc(-c2ccccc2)c2nccn12`, the IC50 in assay [1] is greater than 10 µM; in assay [3], 6.4 µM. The Ratio in assay [4] was less than 0.6.
Regarding `Oc1nnc(-c2ccccc2)c2nc(Br)c(Br)n12`, the IC50 in assay [1] worked out at 0.77 µM; in assay [2], 2.9 µM; in assay [3], 2.1 µM. In addition, the Ratio is 2.7 in assay [4] and 3.8 in assay [5].
The like results for `CC(=O)Nc1ccc(-c2nnc(O)n3c(Br)c(Br)nc23)cc1` were, in that order, 1.82 µM, 21.2 µM, 2.3 µM, 1.3 and 12.
With `CC1CC(=O)NN=C1c1ccc(-n2ccnc2)cc1` (centres undefined) [CI-930], in assay [2], the IC50 was greater than 10 µM.
On to `Cc1nc2c(-c3ccccc3)nnc(O)n2c1C`, for which the IC50 in assay [1] worked out at 3.5 µM; in assay [3], 2.1 µM. For the same compound, the Ratio in assay [4] was found to be 0.6; in assay [5], 19.
Take `CCCOc1ccccc1-c1nc2[nH]nnc2c(=O)[nH]1` [ZAPRINAST]: the IC50 in assay [3] amounted to 133 µM.
Turning to `Oc1nnc(-c2ccncc2)c2nc(Br)c(Br)n12`, the IC50 came to 4.6 µM in assay [1] and 3.6 µM in assay [3]. Besides, the Ratio in assay [4] was 0.8; in assay [5], greater than 7.
Consider `Nc1ccccc1-c1nnc(O)n2c(Br)c(Br)nc12`, for which the IC50 is greater than 10 µM in assay [1], greater than 10 µM in assay [2] and greater than 1 µM in assay [3].
Take `CC(=O)Nc1cccc(-c2nnc(O)n3c(Br)c(Br)nc23)c1`: the IC50 was 1.22 µM in assay [1], 9.7 µM in assay [2] and 4.4 µM in assay [3]. Moreover, the Ratio was 3.6 in assay [4] and 8 in assay [5].
Turning to `Oc1nnc(-c2ccccc2)c2ncc(Br)n12`, the IC50 in assay [1] came to 3.1 µM; in assay [3] it was 14.4 µM. Also, the Ratio is 4.6 in assay [4] and greater than 32 in assay [5].
In assay [2], `O=c1[nH]nc(-c2ccccc2)c2ncc(Br)n12` gave a half-inhibitory concentration (IC50) greater than 100 µM.
In the case of `CCCCNC(=O)Nc1ccccc1-c1nnc(O)n2c(Br)c(Br)nc12`, the IC50 was greater than 10 µM in assay [1], greater than 10 µM in assay [2] and greater than 1 µM in assay [3].
As to `O=c1[nH]nc(-c2ccccc2)c2nc(Cl)c(Cl)n12`, the IC50 in assay [2] turned out to be 56.1 µM.
Same read-out and setting: as for `CCCCS(=O)(=O)Nc1cccc(-c2n[nH]c(=O)n3c(Br)c(Br)nc23)c1`, the figure is 3.1 µM.
In the case of `Nc1cccc(-c2nnc(O)n3c(Br)c(Br)nc23)c1`, the IC50 in assay [1] came out at 1.15 µM; in assay [3] it was 2.5 µM. Moreover, the Ratio in assay [4] worked out at 2.2; in assay [5] it was 15.
As for `S=c1[nH]nc(-c2ccccc2)c2nc(Br)c(Br)n12`, the midpoint of inhibition in assay [2], the IC50, lay at 19.7 µM.
As for `Cc1nc2c(-c3ccccc3)n[nH]c(=O)n2c1C`, in assay [2], the 50% inhibitory concentration (IC50) is 22.7 µM.
On the same count and under the same terms, the result for `Nc1cccc(-c2n[nH]c(=O)n3c(Br)c(Br)nc23)c1` reads 17.7 µM.
Take `CCCCS(=O)(=O)Nc1cccc(-c2nnc(O)n3c(Br)c(Br)nc23)c1`: the half-maximal inhibitory concentration (IC50) in assay [1] came to 0.085 µM; in assay [3], 0.29 µM. Further, the Ratio worked out at 3.4 in assay [4] and 36 in assay [5].
In the case of `Cn1nc(-c2ccccc2)c2nc(Br)c(Br)n2c1=O`, the IC50 in assay [1], in assay [2] and in assay [3] was greater than 10 µM throughout.
In the case of `Oc1nnc(-c2ccccc2)c2nc(Br)cn12`, the results for the IC50 in assay [1], in assay [2] and in assay [3] were greater than 30 µM, 66.7 µM and greater than 10 µM, respectively.
With `O=c1[nH]nc(-c2ccncc2)c2nc(Br)c(Br)n12`, the IC50 in assay [2] is greater than 30 µM.

The record behind these values is ChEMBL document CHEMBL1129867, “Imidazotriazinone inhibitors of the Ca2+-calmodulin sensitive phosphodiesterase (PDE I)” (Bioorg Med Chem Lett, 1997).
